Laboratory results as given in paper PMC11249637, “Interaction of the Atypical Tetracyclines Chelocardin and Amidochelocardin with Renal Drug Transporters” (ACS Pharmacology & Translational Science, 2024).

Molecular target: T1, mOat3 (Mus musculus, UniProt O88909)
T1 construct: expressed in transfected cells; host or cells: HEK293
T1 sequence (O88909 1-537): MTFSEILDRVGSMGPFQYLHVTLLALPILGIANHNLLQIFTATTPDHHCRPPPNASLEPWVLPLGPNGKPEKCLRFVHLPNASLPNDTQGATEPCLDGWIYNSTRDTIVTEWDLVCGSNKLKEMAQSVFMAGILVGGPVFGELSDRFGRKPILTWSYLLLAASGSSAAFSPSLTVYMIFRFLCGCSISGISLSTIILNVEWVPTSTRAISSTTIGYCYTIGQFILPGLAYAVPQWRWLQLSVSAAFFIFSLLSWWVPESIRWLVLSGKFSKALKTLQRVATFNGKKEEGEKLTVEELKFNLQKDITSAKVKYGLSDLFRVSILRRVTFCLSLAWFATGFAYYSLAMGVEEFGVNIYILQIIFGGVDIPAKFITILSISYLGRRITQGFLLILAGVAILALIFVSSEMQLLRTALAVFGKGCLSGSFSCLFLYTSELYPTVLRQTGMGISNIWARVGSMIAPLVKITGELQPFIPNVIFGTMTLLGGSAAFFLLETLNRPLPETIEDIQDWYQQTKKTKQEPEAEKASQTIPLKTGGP
Test: Three-point uptake (substrate assessment) in mOat3-overexpressing HEK293 cells
Format: in vitro ADME
Experimental: This is important to gain a better understanding of the underlying mechanisms of secretion into urine. Therefore, we assessed the amount of compound taken up by the vector and transporter cells at three different concentrations (1, 10, and 100 μM for mOat1 and mOct1; 0.1, 1, and 10 μM for mOat3) and at two different incubation periods (1 and 5 min for mOat1 and mOct1; 5 and 10 min for mOat3).
The incubation buffer contained CHD and CDCHD in a final concentration of 0.1, 1, and 10 μM. After 5 and 10 min, the incubation was terminated. In addition, the probe inhibitor probenecid (100 μM) was added in one concentration to 10 μM CHD and CDCHD, respectively, and after 5 and 10 min, the incubation was stopped. Inhibition of mOat3-mediated ^3H-ES (1 μM) uptake by 100 μM probenecid was performed as a control experiment. After 1 min, the incubation was terminated. All experiments were conducted in triplicate.
First, a calibration curve was prepared by spiking different concentrations of CHD and CDCHD into the cell matrix. Caffeine was used as an internal standard. In addition, quality control samples (QCs) were prepared for CHD and CDCHD in a cell matrix. The following extraction procedures were used: 300 μL of acetonitrile/water (1:1) is added to the cell pellet (sample or calibration/QC sample) for 15 min at 2000 rpm on an Eppendorf MixMate vortex mixer. 10 μL of this extracted sample is used for further analysis. 10 μL of the extracted cell sample is further extracted with 25 μL of a mixture of methanol/acetonitrile (2:1) containing 12.5 ng/mL caffeine as an internal standard (on ice) for 5 min at 2000 rpm on an Eppendorf MixMate vortex mixer. […] Samples were analyzed using an Agilent 1290 Infinity II HPLC system coupled to an AB Sciex QTrap6500plus mass spectrometer. […]
For statistical testing of differences in uptake ratio or for the inhibitory effect, an ordinary one-way ANOVA test was performed using GraphPad Prism 9.5.1 software. […] Michaelis–Menten kinetics were determined using the Michaelis–Menten algorithm of GraphPad Prism 9.5.1 software. […]

SMILES	substrate of mOat3 (in words)	Km (Michaelis–Menten fit, 0.1, 1 and 10 μM) [µM]
Cc1ccc2c(C)c3c(c(O)c2c1O)C(=O)[C@@]1(O)C(=O)C(C(N)=O)=C(O)[C@@H](N)[C@H]1C3 [CDCHD, amidochelocardin]	is not a substrate	
CC(=O)C1=C(O)[C@@H](N)[C@H]2Cc3c(c(O)c4c(O)c(C)ccc4c3C)C(=O)[C@@]2(O)C1=O [CHD, chelocardin]	is a substrate	6.1
